Data: patent publication US12263175B2, “Optimised dosage of diaminophenothiazines in populations” (WisTa Laboratories Ltd., priority 2018, dated 2025)

Test: Treatment-emergent adverse events, three Phase 3 double-blind studies, LMTM pooled safety population
Format: in vivo, human
Text: Three Phase 3, double-blind, controlled studies of LMTM have been completed (one each in subjects with mild and mild to moderate AD and one in subjects with bvFTD). Results of the AD studies have been published (Gauthier et al., 2016; Wilcock et al., 2018).
In these three studies, 1897 subjects received at least one dose of LMTM (Safety Population [Five additional subjects with AD, participating at one site in Study TRx-237-005, received a dose of study drug but were excluded from all analyses due to GCP violations], 1679 subjects with AD and 218 subjects with bvFTD). Of these, 860 subjects received the control (LMTM 8 mg/day, 750 with AD and 110 with bvFTD) and 1037 subjects received at least one dose of LMTM in the higher doses of 150 to 250 mg/day (929 with AD and 108 with bvFTD).
The incidence of the most common TEAEs are summarised by dose in the following Table EX1. This includes TEAEs that occurred at an incidence of ≥2.0% either in subjects randomised to LMTM 8 mg/day or higher doses (150 to 250 mg/day). The subset of TEAEs that were severe in intensity are also included.
The TEAEs are further analysed by using groupings of related MedDRA (Medical Dictionary for Regulatory Activities) preferred terms to better estimate the incidence of potentially treatment related adverse events. The incidence of all groupings for subjects categorised by dose (8 mg/day versus higher doses of 150 to 250 mg/day) is shown in the following Table EX2: […]

[1] = LMTM 8 mg/day (N = 860), Severe Intensity
[2] = subjects treated with LMTM 8 mg/day

CN(C)c1ccc2c(c1)Sc1cc(N(C)C)ccc1N2 [LMTM, leuco-methylthioninium bis(hydromethanesulfonate)]
Grouped TEAE incidence: Behavioral Symptoms (LMTM 8 mg/day (N = 860)): 114 (13.3%) n (%) | Grouped TEAE incidence: Falls and Related Terms (LMTM 8 mg/day (N = 860)): 188 (21.9%) n (%) | Grouped TEAE incidence: Hepatic Function Impairment (LMTM 8 mg/day (N = 860)): 13 (1.5%) n (%) | Grouped TEAE incidence: Hypersensitivity (LMTM 8 mg/day (N = 860)): 42 (4.9%) n (%) | Grouped TEAE incidence: Ischaemic Events, Inclusive of Myocardial Infarction (LMTM 8 mg/day (N = 860)): 20 (2.3%) n (%) | Grouped TEAE incidence: Psychotic Symptoms (LMTM 8 mg/day (N = 860)): 28 (3.3%) n (%) | Grouped TEAE incidence: Renal Function Impairment (LMTM 8 mg/day (N = 860)): 29 (3.4%) n (%) | Grouped TEAE incidence: Renal and Urinary Disorders (Including Infections) (LMTM 8 mg/day (N = 860)): 135 (15.7%) n (%) | Grouped TEAE incidence: Sleep Disorders (LMTM 8 mg/day (N = 860)): 41 (4.8%) n (%) | Grouped TEAE incidence: Targeted Gastrointestinal Events (LMTM 8 mg/day (N = 860)): 183 (21.3%) n (%) | No. (%) of Subjects Reporting at Least One TEAE (LMTM 8 mg/day (N = 860), All): 720 (83.7%) n (%) | TEAE incidence: Abdominal pain (LMTM 8 mg/day (N = 860), All): 16 (1.9%) n (%) | TEAE incidence: Abdominal pain upper (LMTM 8 mg/day (N = 860), All): 10 (1.2%) n (%) | TEAE incidence: Agitation (LMTM 8 mg/day (N = 860), All): 46 (5.3%) n (%) | TEAE incidence: Anaemia (LMTM 8 mg/day (N = 860), All): 19 (2.2%) n (%) | TEAE incidence: Anxiety (LMTM 8 mg/day (N = 860), All): 52 (6.0%) n (%) | TEAE incidence: Arthralgia (LMTM 8 mg/day (N = 860), All): 28 (3.3%) n (%) | TEAE incidence: Atrial fibrillation (LMTM 8 mg/day (N = 860), All): 17 (2.0%) n (%) | TEAE incidence: Back pain (LMTM 8 mg/day (N = 860), All): 31 (3.6%) n (%) | TEAE incidence: Blood creatine phosphokinase increased (LMTM 8 mg/day (N = 860), All): 18 (2.1%) n (%) | TEAE incidence: Blood folate decreased (LMTM 8 mg/day (N = 860), All): 45 (5.2%) n (%) | TEAE incidence: Bronchitis (LMTM 8 mg/day (N = 860), All): 27 (3.1%) n (%) | TEAE incidence: Cerebral microhaemorrhage (LMTM 8 mg/day (N = 860), All): 24 (2.8%) n (%) | TEAE incidence: Confusional state (LMTM 8 mg/day (N = 860), All): 22 (2.6%) n (%) | TEAE incidence: Constipation (LMTM 8 mg/day (N = 860), All): 23 (2.7%) n (%) | TEAE incidence: Contusion (LMTM 8 mg/day (N = 860), All): 24 (2.8%) n (%) | TEAE incidence: Cough (LMTM 8 mg/day (N = 860), All): 37 (4.3%) n (%) | TEAE incidence: Decreased appetite (LMTM 8 mg/day (N = 860), All): 13 (1.5%) n (%) | TEAE incidence: Dehydration (LMTM 8 mg/day (N = 860), All): 17 (2.0%) n (%) | TEAE incidence: Depression (LMTM 8 mg/day (N = 860), All): 41 (4.8%) n (%) | TEAE incidence: Diarrhoea (LMTM 8 mg/day (N = 860), All): 109 (12.7%) n (%) | TEAE incidence: Dizziness (LMTM 8 mg/day (N = 860), All): 49 (5.7%) n (%) | TEAE incidence: Dysuria (LMTM 8 mg/day (N = 860), All): 6 (0.7%) n (%) | TEAE incidence: Fall (LMTM 8 mg/day (N = 860), All): 90 (10.5%) n (%) | TEAE incidence: Fatigue (LMTM 8 mg/day (N = 860), All): 26 (3.0%) n (%) | TEAE incidence: Folate deficiency (LMTM 8 mg/day (N = 860), All): 17 (2.0%) n (%) | TEAE incidence: Haemoglobin decreased (LMTM 8 mg/day (N = 860), All): 6 (0.7%) n (%) | TEAE incidence: Hallucination (LMTM 8 mg/day (N = 860), All): 13 (1.5%) n (%) | TEAE incidence: Headache (LMTM 8 mg/day (N = 860), All): 55 (6.4%) n (%) | TEAE incidence: Hypertension (LMTM 8 mg/day (N = 860), All): 20 (2.3%) n (%) | TEAE incidence: Insomnia (LMTM 8 mg/day (N = 860), All): 29 (3.4%) n (%) | TEAE incidence: Laceration (LMTM 8 mg/day (N = 860), All): 17 (2.0%) n (%) | TEAE incidence: Micturition urgency (LMTM 8 mg/day (N = 860), All): 11 (1.3%) n (%) | TEAE incidence: Nasopharyngitis (LMTM 8 mg/day (N = 860), All): 40 (4.7%) n (%) | TEAE incidence: Nausea (LMTM 8 mg/day (N = 860), All): 39 (4.5%) n (%) | TEAE incidence: Oedema peripheral (LMTM 8 mg/day (N = 860), All): 19 (2.2%) n (%) | TEAE incidence: Pain in extremity (LMTM 8 mg/day (N = 860), All): 19 (2.2%) n (%) | TEAE incidence: Pollakiuria (LMTM 8 mg/day (N = 860), All): 19 (2.2%) n (%) | TEAE incidence: Rash (LMTM 8 mg/day (N = 860), All): 21 (2.4%) n (%) | TEAE incidence: Suicidal ideation (LMTM 8 mg/day (N = 860), All): 27 (3.1%) n (%) | TEAE incidence: Syncope (LMTM 8 mg/day (N = 860), All): 26 (3.0%) n (%) | TEAE incidence: Tremor (LMTM 8 mg/day (N = 860), All): 20 (2.3%) n (%) | TEAE incidence: Upper respiratory tract infection (LMTM 8 mg/day (N = 860), All): 35 (4.1%) n (%) | TEAE incidence: Urinary incontinence (LMTM 8 mg/day (N = 860), All): 34 (4.0%) n (%) | TEAE incidence: Urinary tract infection (LMTM 8 mg/day (N = 860), All): 76 (8.8%) n (%) | TEAE incidence: Vitamin B12 decreased (LMTM 8 mg/day (N = 860), All): 23 (2.7%) n (%) | TEAE incidence: Vomiting (LMTM 8 mg/day (N = 860), All): 20 (2.3%) n (%) | TEAE incidence: Weight decreased (LMTM 8 mg/day (N = 860), All): 18 (2.1%) n (%) | No. (%) of Subjects Reporting at Least One TEAE [1]: 86 (10.0%) n (%) | TEAE incidence: Abdominal pain [1]: 1 (0.1%) n (%) | TEAE incidence: Abdominal pain upper [1]: 1 (0.1%) n (%) | TEAE incidence: Agitation [1]: 1 (0.1%) n (%) | TEAE incidence: Anaemia [1]: 1 (0.1%) n (%) | TEAE incidence: Anxiety [1]: 0 n (%) | TEAE incidence: Arthralgia [1]: 0 n (%) | TEAE incidence: Atrial fibrillation [1]: 3 (0.3%) n (%) | TEAE incidence: Back pain [1]: 1 (0.1%) n (%) | TEAE incidence: Blood creatine phosphokinase increased [1]: 0 n (%) | TEAE incidence: Blood folate decreased [1]: 0 n (%) | TEAE incidence: Bronchitis [1]: 0 n (%) | TEAE incidence: Cerebral microhaemorrhage [1]: 0 n (%) | TEAE incidence: Confusional state [1]: 2 (0.2%) n (%) | TEAE incidence: Constipation [1]: 2 (0.2%) n (%) | TEAE incidence: Contusion [1]: 0 n (%) | TEAE incidence: Cough [1]: 0 n (%) | TEAE incidence: Decreased appetite [1]: 0 n (%) | TEAE incidence: Dehydration [1]: 4 (0.5%) n (%) | TEAE incidence: Depression [1]: 0 n (%) | TEAE incidence: Diarrhoea [1]: 5 (0.6%) n (%) | TEAE incidence: Dizziness [1]: 3 (0.3%) n (%) | TEAE incidence: Dysuria [1]: 0 n (%) | TEAE incidence: Fall [1]: 4 (0.5%) n (%) | TEAE incidence: Fatigue [1]: 0 n (%) | TEAE incidence: Folate deficiency [1]: 0 n (%) | TEAE incidence: Haemoglobin decreased [1]: 0 n (%) | TEAE incidence: Hallucination [1]: 0 n (%) | TEAE incidence: Headache [1]: 1 (0.1%) n (%) | TEAE incidence: Hypertension [1]: 0 n (%) | TEAE incidence: Insomnia [1]: 0 n (%) | TEAE incidence: Laceration [1]: 0 n (%) | TEAE incidence: Micturition urgency [1]: 0 n (%) | TEAE incidence: Nasopharyngitis [1]: 0 n (%) | TEAE incidence: Nausea [1]: 1 (0.1%) n (%) | TEAE incidence: Oedema peripheral [1]: 0 n (%) | TEAE incidence: Pain in extremity [1]: 1 (0.1%) n (%) | TEAE incidence: Pollakiuria [1]: 0 n (%) | TEAE incidence: Rash [1]: 0 n (%) | TEAE incidence: Suicidal ideation [1]: 2 (0.2%) n (%) | TEAE incidence: Syncope [1]: 1 (0.1%) n (%) | TEAE incidence: Tremor [1]: 0 n (%) | TEAE incidence: Upper respiratory tract infection [1]: 0 n (%) | TEAE incidence: Urinary incontinence [1]: 0 n (%) | TEAE incidence: Urinary tract infection [1]: 1 (0.1%) n (%) | TEAE incidence: Vitamin B12 decreased [1]: 0 n (%) | TEAE incidence: Vomiting [1]: 0 n (%) | TEAE incidence: Weight decreased [1]: 0 n (%) | Grouped TEAE incidence: Falls and Related Terms [2]: 22% | Grouped TEAE incidence: GI events [2]: 21% | Grouped TEAE incidence: Renal and Urinary Disorders (Including Infections) [2]: 16% | Grouped TEAE incidence: behavioural symptoms [2]: 13% | Grouped TEAE incidence: terms indicative of anaemia [2]: 13%
